In patent US12539294B2, “Combination of an azetidine LPA1 receptor antagonist with pirfenidone and/or nintedanib for use in the treatment of fibrotic diseases” (Idorsia Pharmaceuticals Ltd, priority 2020, dated 2026):
One block for each molecule: values may come before it.

What was measured:
[1] = target: T1, human LPA1 receptor (Homo sapiens, UniProt Q92633); assay: Beta-arrestin recruitment assay (Tango EDG2-bla U2OS cells) to determine IC50 values for human LPAR1; type: cell-based; conditions: antagonist mode, LPA 18:1 500 nM final; geomean where multiple values
T1 construct: TEV protease site; Gal4-VP16 transcription factor; host or cells: Tango EDG2-bla U2OS cells
From the text: Biological Assays Beta-Arrestin Recruitment Assay to Determine IC50 values for human LPAR1
The Tango™ EDG2-bla U2OS cells are obtained from Invitrogen. These cells contain the human LPA1 receptor cDNA linked to a TEV protease site and a Gal4-VP16 transcription factor integrated into the Tango™ GPCR-bla U2OS parental cell line. This parental cell line stably expresses a beta-arrestin/TEV protease fusion protein and the beta-lactamase (bla) reporter gene under the control of a UAS response element. Upon LPA (agonist) binding, LPA1 receptor gets activated, leading to arrestin-protease recruitment and proteolytic release of the transcription factor: The transcription factor then regulates transcription of a beta-lactamase reporter construct, which is measured upon addition of the live-cell substrate.
10'000 Tango™ EDG2-bla U2OS cells are seeded in a 384-well black with clear bottom plate in 30 μl Freestyle 293 Expression Medium (Invitrogen) and incubated for 20 h at 37° C., 5% CO2. For antagonist assays, 5 μl of test compound (dilution series in DMSO/Freestyle 293 Expression medium/0.1% fatty acid free BSA (Sigma)) or buffer control are added per well and incubated for 30 min at 37° C., 5% CO2. 5 μl of LPA 18:1 (500 nM final) (solution in Freestyle 293 Expression medium/0.1% fatty acid free BSA (Sigma)) are added per well and the plate incubated for 16 h at 37° C., 5% CO2. Cells are then loaded with LiveBLAzer-FRET™ B/G Substrate (Invitrogen) for 2 h in the dark and the fluorescence emission at 460 nm and 530 nm is measured using the SynergyMx reader (BioTek). Following the background subtraction from both channels, the 460/530 nm emission ratio for each well is calculated, then plotted and fitted to a 4-parameter logistic function to obtain IC50 values. IC50 is the concentration of antagonist inhibiting 50% of the maximal response.
Where multiple values were measured, geomean values are given.

[2] = cited from earlier work
[3] = tested on: LPA-induced vascular leakage; assay: mouse LPA-induced skin vascular leakage model; type: in vivo; conditions: oral administration of 30 mg/kg to mice
Description: The in vivo potency of the compounds of Formula (I) can be determined using a mouse LPA-induced skin vascular leakage model. Female Balb/c mice are treated with either vehicle or test compound (p.o.) for at least 1 h prior to administration of the albumin marker Evans blue (50 mg/kg, i.v., 0.9% NaCl) and subsequent challenge with LPA (5 μg, i.d.). After 30 minutes, mice are sacrificed by CO2 inhalation. Discs of skin from the injection sites are removed, digested in formamide (500 μl, 37° C., 24 hrs) and the content of Evans blue quantified by colorimetric assay. Results are expressed as extravasated Evans blue per skin disc (μg/disc).
As an example, selected compound of the present invention, Ex 5-2, is able to effectively reduce LPA-induced vascular leakage after oral administration of 30 mg/kg to mice as compared to a group of animals treated with vehicle only. Reduction of vascular leakage compared to vehicle group was ≥60%.

[4] = cited from earlier work; remark: listed apart in the source
[5] = tested on: primary human lung (myo)fibroblasts; conditions: cited from earlier work; for fibroblast to myofibroblast differentiation and/or pro-fibrotic activity of (myo)fibroblasts: primary human lung (myo)fibroblasts, various conditions
[6] = tested on: NHLF; assay: TGFβ-induced αSMA expression in human fibroblasts, combination with nintedanib; type: cell-based; conditions: 1 μM nintedanib, TGFβ 5 ng/ml, 48 h
Description: Combination Efficacy Experiment: TGFβ-Induced αSMA Expression in Human Fibroblasts:
NHLF were obtained from Lonza. 10'000 cells were seeded in 24-well plates in 300 μl FGM™ and incubated for 20 hours at 37° C., 5% CO2. The medium was changed for 300 μl FBM™ supplemented with 0.1% fatty acid free BSA (Sigma) and the plate incubated for 20 hours at 37° C., 5% CO2. 100 μl of the respective COMPOUND, nintedanib or their combination (solution in FBM™/0.1% fatty acid free BSA) were added per well and incubated for 30 minutes, followed by addition of 100 μl of TGFβ (5 ng/ml final) (solution in FBM™/0.1% fatty acid free BSA) and incubation for 48 h at 37° C., 5% CO2. […] Samples were resolved by SDS-PAGE on 4-12% Novex Bis-Tris precast gels (Thermo Fischer Scientific) and analyzed by western blot using αSMA (Sigma) and HRP-coupled secondary antibodies.
Membranes were treated with Western Lighting Enhanced Chemiluminescence Substrate (Perkin Elmer) and the chemiluminescence signal was recorded by the reader Fusion FX6 (Viber Lourmat). Signals were quantified using densitometric analysis in Fusion software. % of inhibition of TGFβ-induced αSMA expression was calculated for each COMPOUND, nintedanib and their combination. Additive effect was calculated by adding the values of % of inhibition by COMPOUND alone and nintedanib alone and expressed as “expected combo inhibition”. […]

[7] = cited from earlier work; remark: listed apart in the source
[8] = tested on: Normal Human Lung Fibroblasts (NHLF); assay: TGFβ-induced αSMA expression in human fibroblasts, combination with pirfenidone; type: cell-based
Description: The anti-fibrotic effect of the respective Example COMPOUND A-C or Reference COMPOUND D (BMS-986020) and pirfenidone alone or in combination can be determined in vitro in the assay of TGFβ-induced myofibroblast differentiation.
Combination Efficacy Experiment: Transforming Growth Factor Beta (TGFβ)-Induced α-Smooth Muscle Actin (αSMA) Expression in Human Fibroblasts:
Normal Human Lung Fibroblasts (NHLF) were obtained from Lonza. 10'000 cells were seeded in 24-well plates in 300 μl Fibroblast Growth Medium-2 (FGM™-2, Lonza) and incubated for 20 hours at 37° C., 5% CO2. […] Samples were resolved by SDS-PAGE on 4-12% Novex Bis-Tris precast gels (Thermo Fischer Scientific) and analyzed by western blot using αSMA (Sigma) and HRP-coupled secondary antibodies. Membranes were treated with Western Lighting Enhanced Chemiluminescence Substrate (Perkin Elmer) and the chemiluminescence signal was recorded by the reader Fusion FX6 (Viber Lourmat). Signals were quantified using densitometric analysis in Fusion software. % of inhibition of TGFβ-induced αSMA expression was calculated for each COMPOUND, pirfenidone and their combination. Additive effect was calculated by adding the values of % of inhibition by COMPOUND alone and pirfenidone alone and expressed as “expected combo inhibition”. Measured % of inhibition by COMPOUND and pirfenidone combination was expressed as “measured combo inhibition”. […]

T1 sequence (Q92633 whole entry, the tested form may be a part): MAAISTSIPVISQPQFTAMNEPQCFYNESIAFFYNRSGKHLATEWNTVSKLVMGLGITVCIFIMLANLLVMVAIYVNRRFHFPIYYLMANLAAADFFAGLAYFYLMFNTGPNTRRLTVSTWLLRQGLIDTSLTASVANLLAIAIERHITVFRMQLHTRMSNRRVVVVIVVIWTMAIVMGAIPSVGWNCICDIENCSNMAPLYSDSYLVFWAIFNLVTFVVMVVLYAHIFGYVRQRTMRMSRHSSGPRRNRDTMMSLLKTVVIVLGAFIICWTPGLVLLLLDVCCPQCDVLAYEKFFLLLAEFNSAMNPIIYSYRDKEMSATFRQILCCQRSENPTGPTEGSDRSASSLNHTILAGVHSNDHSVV

Molecule: Cc1noc(-c2ccc(-c3ccc(C4(C(=O)O)CC4)cc3)cc2)c1NC(=O)O[C@H](C)c1ccccc1 [BMS-986020]
rate of decline in forced vital capacity (FVC) versus placebo ([2]; IPF patients, b.i.d.): significantly slower rate of decline
hepatic enzymes ([2]; both BMS-986020 treatment groups): Dose-related elevations
cases of cholecystitis determined to be related to treatment ([2]; study terminated early): three cases of cholecystitis

Molecule: CCOc1cc(Cl)ncc1NC(=O)C1(c2ccccc2C(C)C)CN(CCC(C)(C)C(=O)O)C1 [Example 2-4, 4-(3-((6-chloro-4-ethoxypyridin-3-yl)carbamoyl)-3-(2-isopropylphenyl)azetidin-1-yl)-2,2-dimethylbutanoic acid]
IC50 [1]: 20 nM

Molecule: Cc1ccc(NC(=O)C2(c3ccccc3C(C)C)CN(CCCC(C)(C)C(=O)O)C2)c(OC(F)F)n1 [Example 3-1, 5-(3-((2-(difluoromethoxy)-6-methylpyridin-3-yl)carbamoyl)-3-(2-isopropylphenyl)azetidin-1-yl)-2,2-dimethylpentanoic acid]
IC50 [1]: 13 nM

Molecule: COc1cc(Cl)ncc1NC(=O)C1(c2ccccc2C(C)C)CN(S(N)(=O)=O)C1 [Example 5-2, N-(6-chloro-4-methoxypyridin-3-yl)-3-(2-isopropylphenyl)-1-sulfamoylazetidine-3-carboxamide]
Reduction of vascular leakage compared to vehicle group [3]: ≥ 60%

Molecule: CCS(=O)(=O)O.COC(=O)c1ccc2c(c1)NC(=O)/C2=C(\Nc1ccc(N(C)C(=O)CN2CCN(C)CC2)cc1)c1ccccc1 [nintedanib, (3Z)-2,3-dihydro-3-[[[4-[methyl-[(4-methyl-1-piperazinyl)-acetyl]-amino]-phenyl]-amino]-phenylmethylene]-2-oxo-1H-indole-6-carboxylic acid methyl ester ethanesulfonate]
elevated liver enzymes and drug-induced liver injury ([4]; clinical and postmarketing): ALT, AST, and bilirubin elevations have occurred
reduction of the decline in lung function ([4]; two phase III trials, over one year): approximately 50%
fibroblast to myofibroblast differentiation and/or pro-fibrotic activity of (myo)fibroblasts [5]: attenuated, but usually did not fully inhibit
inhibition of TGFβ-induced αSMA expression, nintedanib alone [6]: minimally inhibited

Molecule: Cc1ccc(=O)n(-c2ccccc2)c1 [pirfenidone, 5-methyl-1-phenyl-2-(1H)-pyridone]
patients requiring dosage reduction or interruption for gastrointestinal events ([7]; 2403 mg/day group): 18.5%
patients who discontinued treatment due to a gastrointestinal event ([7]; 2403 mg/day group): 2.2%
patients with elevations ≥10×ULN in ALT or AST ([7]; 2403 mg/day group): 0.3%
incidence of elevations in ALT or AST ≥3× upper limit of normal (ULN) ([7]; 2403 mg/day, three Phase 3 trials): 3.7%
drug-induced liver injury (DILI) ([7]; clinical and postmarketing): Cases of drug-induced liver injury (DILI) have been observed
inhibition of TGFβ-induced αSMA expression, pirfenidone alone ([8]; 2 mM pirfenidone, TGFβ 5 ng/ml, 48 h): minimally inhibited
pirfenidone potency (IC50) on TGFβ-induced αSMA expression when combined with COMPOUND A ([8]; presence of 10 nM, 100 nM and 1000 nM COMPOUND A versus absence (FIG. 5)): gains in potency
concentrations used to observe significant effects in vitro ([5]; in vitro): > 0.5 mM
fibroblast to myofibroblast differentiation and/or pro-fibrotic activity of (myo)fibroblasts [5]: attenuated, but usually did not fully inhibit

The remaining lines, values ahead:

IC50 [1]: 12 nM
Molecule: 4-(3-((6-chloro-4-ethoxypyridin-3-yl)carbamoyl)-3-(2-isopropylphenyl)azetidin-1-yl)-2,2-dimethyl-4-oxobutanoic acid [Example 4-5]

IC50 [1]: 79 nM
Molecule: COc1cc(Cl)ncc1NC(=O)C1(c2ccccc2C(C)C)CN(C(=O)CC(C)(C)C(=O)O)C1 [Example 4-2, 4-(3-((6-chloro-4-methoxypyridin-3-yl)carbamoyl)-3-(2-isopropylphenyl)azetidin-1-yl)-2,2-dimethyl-4-oxobutanoic acid]

IC50 [1]: 19 nM
Molecule: COc1cc(F)ncc1NC(=O)C1(c2ccccc2C(C)C)CN(S(N)(=O)=O)C1 [Example 5-1, N-(6-fluoro-4-methoxypyridin-3-yl)-3-(2-isopropylphenyl)-1-sulfamoylazetidine-3-carboxamide]

IC50 [1]: 3 nM
Molecule: CCOc1cc(Cl)ncc1NC(=O)C1(c2ccccc2C(C)C)CN(S(N)(=O)=O)C1 [Example 5-3, N-(6-chloro-4-ethoxypyridin-3-yl)-3-(2-isopropylphenyl)-1-sulfamoylazetidine-3-carboxamide]

IC50 [1]: 2 nM
Molecule: Cc1ccc(NC(=O)C2(c3ccccc3C(C)C)CN(S(N)(=O)=O)C2)c(OC(F)F)n1 [Example 5-7, N-(2-(difluoromethoxy)-6-methylpyridin-3-yl)-3-(2-isopropylphenyl)-1-sulfamoylazetidine-3-carboxamide]

IC50 [1]: 51 nM
Molecule: COc1nc(C)ccc1NC(=O)C1(c2ccccc2C(C)C)CN(S(N)(=O)=O)C1 [Example 5-8, 3-(2-isopropylphenyl)-N-(2-methoxy-6-methylpyridin-3-yl)-1-sulfamoylazetidine-3-carboxamide]

IC50 [1]: 14 nM
Molecule: Cc1ccc(NC(=O)C2(c3ccccc3C(C)C)CN(S(N)(=O)=O)C2)c(OC(C)C)n1 [Example 5-10, N-(2-isopropoxy-6-methylpyridin-3-yl)-3-(2-isopropylphenyl)-1-sulfamoylazetidine-3-carboxamide]
